Values joined by “and” are separate entries in the source; they are usually repeats but may differ in a detail not shown here. Identical values can stand only once.
Legend:
[1] = Exposure-safety: logistic regression against model-predicted AUC0–24; assay type: in vivo, human; conditions: for predicted incidence of all grade total bilirubin elevation: median baseline total bilirubin 6.84 μmol/L; for AUC(0-t): human, serum, oral
[2] = test system: BCR-ABL transcript level; experiment: Exposure-efficacy: BCR-ABL ratio and MMR at 12 months by observed Cmin quartile; assay type: in vivo, human
[3] = human, in vivo
[4] = clinical; conditions: human, serum, oral
[5] = test system: OCT1; conditions: cited from earlier work
[6] = test system: efflux transporters (ABCB1, ABCG2); conditions: CML cells; cited from earlier work
[7] = Population PK analysis, nonlinear mixed-effect modeling
[8] = population mean (standard error)

## Cc1cn(-c2cc(NC(=O)c3ccc(C)c(Nc4nccc(-c5cccnc5)n4)c3)cc(C(F)(F)F)c2)cn1 [nilotinib]
[1]; AUC0–24 16 μg·h/mL
  predicted incidence of all grade abnormalities, hemoglobin: 31.7%
  predicted incidence of all grade abnormalities, lipase: 17.4%
[1]; AUC0–24 16 μg∙h/mL
  predicted incidence of all grade total bilirubin elevation: 29.4%
[1]; AUC0–24 24 μg·h/mL
  predicted incidence of all grade abnormalities, hemoglobin: 36.4%
  predicted incidence of all grade abnormalities, lipase: 23.8%
[1]; AUC0–24 24 μg∙h/mL
  predicted incidence of all grade total bilirubin elevation: 46.5%
[1]; AUC0–24 32 μg·h/mL
  predicted incidence of all grade abnormalities, hemoglobin: 39.9%
  predicted incidence of all grade abnormalities, lipase: 29.3%
[1]; AUC0–24 32 μg∙h/mL
  predicted incidence of all grade total bilirubin elevation: 59.5%
[1]
  AUC(0-t): 25900 ng·h/mL
[1]; male, 300 mg
  AUC(0-t): 24000 ng·h/mL
[2]; Q2/3 829–1,569 ng/mL vs Q1
  MMR difference vs Q1 (95% CI): 1.7 (−10.4, 13.8)
[2]; Q4 >1,569 ng/mL vs Q1
  MMR difference vs Q1 (95% CI): 4.6 (−9.3, 18.6)
[2]; Q4 >1,569 ng/mL vs Q2/3
  MMR difference vs Q2/3 (95% CI): 2.9 (−9.0, 14.8)
[2]; average Cmin Q1 <829 ng/mL, evaluable patients n observed 96
  MMR at 12 months: 45 (46.9) n (%)
[2]; average Cmin Q2/3 829–1,569 ng/mL, evaluable patients n observed 208
  MMR at 12 months: 101 (48.6) n (%)
[2]; average Cmin Q4 >1,569 ng/mL, evaluable patients n observed 101
  MMR at 12 months: 52 (51.5) n (%)
[3]
  higher exposure in 400 mg twice-daily arm than in 300 mg twice-daily arm: 11.5%
[4]
  Vd: 58 L
  clearance: 350 mL/min
[5]
  dependence of movement into CML cells on influx transporter OCT1: independent of the influx transporter OCT1
[6]
  role of efflux transporters (ABCB1, ABCG2) in cellular retention: none of them appear to play an important role
[7]; AST increase from ULN to 1.5 × ULN
  predicted decrease in CL: 1%
[7]; AST increase from ULN to 2 × ULN
  predicted decrease in CL: 3%
[7]; estimate (standard error)
  σ1, proportional random error: 29.8 (0.917) %
  σ2, additive random error: 110 (17.4) ng/mL
[7]; final model, % (SE)
  Interindividual variability of CL: 37.6% and 37.6 (1.4) %
  Interindividual variability of V1: 79.2% and 79.2 (14.2) %
  Interindividual variability of V2: 98.9% and 98.9 (19.7) %
[7]; model without covariates
  interindividual variability of CL before addition of significant covariates: 40.0%
[7]; [8]
  D1, zero-order input duration: 9.88 (0.112) h
  V2, volume of distribution of peripheral compartment: 181 (25.4) L
[7]; population mean, fixed
  Lag, lag time for absorption: 0.67 h (fixed)
[7]; same dose level
  lower bioavailability or systemic exposure in male than female patients: approximately 10%
[7]; total bilirubin increase from ULN to 1.5 × ULN
  predicted decrease in CL: 12%
[7]; total bilirubin increase from ULN to 2 × ULN
  predicted decrease in CL: 23%
[7]; total bilirubin increase from ULN to 2.5 × ULN
  predicted decrease in CL: 32%

Source: PMC5557053 (European journal of clinical pharmacology, 2011)
